In the SangsterLogP compilation:

Key:
[1] = method code SF-AS, from DOI: 10.1248/cpb.32.4994, PMID: 6534548
[2] = method code SF-AQ, from DOI: 10.1248/cpb.32.4994, PMID: 6534548
[3] = method code AS, from DOI: 10.1248/cpb.32.4994, PMID: 6534548

Structure (SMILES)	logP [1]	other results
COc1cccc(NC(=O)Cc2ccccc2)c1	2.86	–
CS(=O)(=O)Oc1cccc(NC(=O)Cc2ccccc2)c1	2.32	–
CCc1cccc(N(C(C)=O)c2ccccc2)c1	–	logP [2]: 3.47
O=C(Cc1ccccc1)Nc1ccc(F)cc1	2.86	–
COc1ccc(NC(=O)Cc2ccccc2)cc1	2.49	–
O=C(Cc1ccccc1)Nc1ccc(Br)cc1	–	logP [3]: 3.7
CC(=O)N(c1ccccc1)c1ccc(C)cc1	3.05	–
CC(=O)Oc1cccc(NC(=O)Cc2ccccc2)c1	2.37	–
CC(=O)c1ccc(NC(=O)Cc2ccccc2)cc1	2.75	–
CC(=O)c1cccc(NC(=O)Cc2ccccc2)c1	2.62	–
O=C(Cc1ccccc1)Nc1ccc(Cl)cc1	3.54	–
CNc1cccc(NC(=O)Cc2ccccc2)c1	2.31	–
O=C(Cc1ccccc1)Nc1ccc(O)cc1	1.82	–
CCNc1cccc(NC(=O)Cc2ccccc2)c1	2.59	–
O=C(Cc1ccccc1)Nc1cccc([N+](=O)[O-])c1	2.93	–
N#Cc1cccc(NC(=O)Cc2ccccc2)c1	2.75	–

The next lines start with results.

logP [1]	Structure (SMILES)	other results
3.61	O=C(Cc1ccccc1)Nc1cccc(Cl)c1	–
3.14	Cc1cccc(NC(=O)Cc2ccccc2)c1	–
1.59	Nc1cccc(NC(=O)Cc2ccccc2)c1	–
3.91	O=C(Cc1ccccc1)Nc1cccc(I)c1	–
3.77	O=C(Cc1ccccc1)Nc1cccc(Br)c1	–
2.22	O=C(Cc1ccccc1)Nc1cccc(O)c1	–
3.1	O=C(Cc1ccccc1)Nc1cccc(F)c1	–
